Measurements: paper PMC11066006, “Discovery of active mouse, plant and fungal cytochrome P450s in endogenous proteomes and upon expression in planta” (Scientific Reports, 2024)

What was measured:
Type in all cases: biochemical
[1] = biological target: T1, ZmCYP81A9 (Zea mays, UniProt A0A804P7U7); experiment: hydroxylation monitored by LC-MS; conditions: yeast microsomes, 200 μM bentazone, 1 mM NADPH, pH 7.5, 28 °C, 2 h
T1 construct: untagged as described; codon-optimised ORF in pYES3, microsomes of Saccharomyces cerevisiae WAT11
T1 sequence (A0A804P7U7 with tags, fused parts or gaps): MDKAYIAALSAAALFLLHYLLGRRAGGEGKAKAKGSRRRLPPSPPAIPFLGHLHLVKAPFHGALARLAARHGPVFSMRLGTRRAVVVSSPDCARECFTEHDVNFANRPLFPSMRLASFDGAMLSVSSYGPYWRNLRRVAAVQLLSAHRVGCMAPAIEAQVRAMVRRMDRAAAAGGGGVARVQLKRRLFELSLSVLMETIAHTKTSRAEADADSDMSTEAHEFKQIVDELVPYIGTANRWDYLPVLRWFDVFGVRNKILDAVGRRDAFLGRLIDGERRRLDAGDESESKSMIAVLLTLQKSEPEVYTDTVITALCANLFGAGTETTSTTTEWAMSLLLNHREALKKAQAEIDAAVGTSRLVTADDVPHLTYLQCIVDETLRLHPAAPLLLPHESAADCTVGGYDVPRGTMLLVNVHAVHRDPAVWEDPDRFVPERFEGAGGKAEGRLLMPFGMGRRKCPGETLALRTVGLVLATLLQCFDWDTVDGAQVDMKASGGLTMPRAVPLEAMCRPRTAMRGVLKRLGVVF

[2] = biological target: T2, MmCyp1a2-GFP (Mus musculus, UniProt P00186); experiment: activity-based labeling, click chemistry, in-gel fluorescence; conditions: 10 μM probe, 1 mM NADPH, 1.5 h, leaf microsomes; covalent
T2 construct: gene Cyp1a2; C-terminal GFP fusion, 82 kDa, codon-optimised, agroinfiltrated Nicotiana benthamiana leaf microsomes
T2 sequence (P00186 2-513): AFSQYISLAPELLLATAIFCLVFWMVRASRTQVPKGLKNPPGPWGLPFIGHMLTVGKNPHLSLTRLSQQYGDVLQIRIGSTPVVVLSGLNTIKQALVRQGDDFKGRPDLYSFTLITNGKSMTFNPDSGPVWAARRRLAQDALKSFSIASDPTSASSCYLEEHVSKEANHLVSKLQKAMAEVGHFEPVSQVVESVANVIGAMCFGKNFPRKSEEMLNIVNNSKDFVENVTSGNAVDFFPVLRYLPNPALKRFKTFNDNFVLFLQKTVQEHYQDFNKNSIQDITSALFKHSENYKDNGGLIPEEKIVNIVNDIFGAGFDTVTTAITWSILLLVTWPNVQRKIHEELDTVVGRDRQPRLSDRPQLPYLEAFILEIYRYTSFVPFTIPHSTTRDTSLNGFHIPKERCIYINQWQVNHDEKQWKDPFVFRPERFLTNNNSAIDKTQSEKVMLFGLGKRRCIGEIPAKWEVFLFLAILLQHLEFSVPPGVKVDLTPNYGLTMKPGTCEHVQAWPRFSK

[3] = biological target: T3, ZmCYP81A9-GFP (Zea mays, UniProt A0A804P7U7); experiment: as above; conditions: 10 μM probe, 1 mM NADPH, 1.5 h, leaf microsomes; covalent
T3 construct: C-terminal GFP fusion, codon-optimised, agroinfiltrated Nicotiana benthamiana leaf microsomes
T3 sequence (A0A804P7U7 with tags, fused parts or gaps): T1 sequence (A0A804P7U7 with tags, fused parts or gaps)

[4] = biological target: T3, ZmCYP81A9-GFP; experiment: activity-based labeling, in-gel fluorescence; streptavidin pull-down LC-MS/MS; conditions: 10 μM probe, 1 mM NADPH, 1.5 h, leaf microsomes; covalent
[5] = biological target: T4, ZtCYP539A6 (Zymoseptoria tritici, UniProt F9XDL6); experiment: activity-based labeling, streptavidin pull-down LC-MS/MS; conditions: 30 μM probe, 1 mM NADPH, 1 h, native Z. tritici microsomes; covalent
T4 construct: gene CYP-30; native, microsomes of Z. tritici cell cultures, identified by MS; also expressed as C-terminal GFP fusion in N. benthamiana
T4 sequence (F9XDL6 1-542): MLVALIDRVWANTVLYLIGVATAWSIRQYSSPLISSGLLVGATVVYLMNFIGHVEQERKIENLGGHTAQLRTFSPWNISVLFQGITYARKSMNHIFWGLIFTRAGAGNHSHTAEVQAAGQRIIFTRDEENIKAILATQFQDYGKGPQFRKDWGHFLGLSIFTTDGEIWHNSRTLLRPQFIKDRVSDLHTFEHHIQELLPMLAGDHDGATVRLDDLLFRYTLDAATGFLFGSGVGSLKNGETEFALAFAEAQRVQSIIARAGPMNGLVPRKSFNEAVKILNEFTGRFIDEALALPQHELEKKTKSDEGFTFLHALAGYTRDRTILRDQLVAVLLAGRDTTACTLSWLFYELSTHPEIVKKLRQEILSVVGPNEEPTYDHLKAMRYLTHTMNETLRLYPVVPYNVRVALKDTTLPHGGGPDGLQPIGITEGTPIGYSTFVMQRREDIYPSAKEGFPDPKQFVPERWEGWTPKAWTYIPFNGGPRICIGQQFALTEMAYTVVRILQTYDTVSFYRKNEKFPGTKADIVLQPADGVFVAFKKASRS

[6] = biological target: T5, ZtCYP52R1 (Zymoseptoria tritici, UniProt F9XML6); experiment: as above; conditions: 30 μM probe, 1 mM NADPH, 1 h, native Z. tritici microsomes; covalent
T5 construct: gene CYP-29; native, microsomes of Z. tritici cell cultures, identified by MS; also expressed as C-terminal GFP fusion in N. benthamiana
T5 sequence (F9XML6 1-521): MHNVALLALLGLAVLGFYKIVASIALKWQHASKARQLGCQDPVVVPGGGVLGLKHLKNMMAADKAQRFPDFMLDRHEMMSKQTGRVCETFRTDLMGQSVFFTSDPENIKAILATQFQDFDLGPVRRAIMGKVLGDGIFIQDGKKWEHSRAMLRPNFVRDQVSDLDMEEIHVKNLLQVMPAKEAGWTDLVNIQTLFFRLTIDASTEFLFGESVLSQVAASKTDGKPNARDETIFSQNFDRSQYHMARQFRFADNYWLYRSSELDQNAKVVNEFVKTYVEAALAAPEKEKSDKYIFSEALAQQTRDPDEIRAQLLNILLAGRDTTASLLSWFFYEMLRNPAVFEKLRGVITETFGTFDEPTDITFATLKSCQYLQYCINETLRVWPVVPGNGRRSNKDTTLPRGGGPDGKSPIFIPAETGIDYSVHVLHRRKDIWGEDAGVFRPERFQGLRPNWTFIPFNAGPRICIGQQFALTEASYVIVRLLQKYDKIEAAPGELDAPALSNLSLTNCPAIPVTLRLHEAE

[7] = biological target: T3, ZmCYP81A9-GFP; experiment: as above; conditions: 10 μM probe, 1 mM NADPH, 1.5 h, leaf microsomes; covalent

Structure (SMILES): CC(C)N1C(=O)c2ccccc2NS1(=O)=O [bentazone]
- hydroxylation monitored by LC-MS [1]: used to monitor the conversion of bentazone, leading to hydroxybentazone

Structure (SMILES): C#CCCCCNC(=O)c1cc2ccc(C#C)cc2oc1=O [DB086]
- activity-based labeling, click chemistry, in-gel fluorescence [2]: tested these for labeling with DB086 and DB096
- activity-based labeling, click chemistry, in-gel fluorescence [3]: NADPH-dependent fluorescent signal for DB086 and DB096

Structure (SMILES): C#CCCCCNC(=O)c1ccc(C#C)cc1 [DB096]
- activity-based labeling, in-gel fluorescence; streptavidin pull-down LC-MS/MS [4]: NADPH-dependent fluorescent signal for DB086 and DB096
- activity-based labeling, streptavidin pull-down LC-MS/MS [5]: amongst the DB096-enriched proteins: ZtCYP52R1, ZtCYP539A6, ZtCYP5078B1 and ZtCYP5080H1
- activity-based labeling, streptavidin pull-down LC-MS/MS [6]: amongst the DB096-enriched proteins: ZtCYP52R1, ZtCYP539A6, ZtCYP5078B1 and ZtCYP5080H1
- activity-based labeling, click chemistry, in-gel fluorescence [2]: tested these for labeling with DB086 and DB096

Structure (SMILES): C#CCCCCNC(=O)C1=Cc2ccc(C#C)cc2CC1 [DB088]
- activity-based labeling, streptavidin pull-down LC-MS/MS [7]: confirming that ZmCYP81A9-GFP is labeled by both DB088 and DB096
